System: human whole blood
Experiment: IFN-α/β, IFN-γ, and TNF-α/IL-1β whole blood reporter gene assays (cytokine release)
Assay type: cell-based
Details: FIG. 4
Protocol: IFN-α/β, IFN-γ, and TNF-α/IL-1β Whole Blood Reporter Gene Assays. Whole heparinized blood is collected from consenting individuals, as approved by the University of Minnesota Institutional Review Board, and is diluted 1:2 in RPMI supplemented with 10% fetal bovine serum (FBS). Forty microliters is added to 384-well, flat-bottomed, cell culture-treated microtiter plates containing serial dilutions of compounds. Following incubation at 37° C. for 24 h, […] of supernatant is transferred to separate 384-well plates using a liquid handler equipped with liquid level sensing in order to avoid disturbing the erythrocyte-rich pellet. Forty microliters of HEK-IFNα/β, HEK-IFNγ, or HEK-TNFα/IL-β cytokine reporter cells (InvivoGen, San Diego, CA) harvested at a density of 1×10^6 cells/mL in DMEM with 10% FBS is added to the supernatant plates and incubated at 37° C. for 24 h. […] Sigmoidal dose-response profiles for each cytokine are observed (Beesu M. et al. J. Med. Chem. 2017, 2084), from which threshold cytokine concentrations corresponding to maximal responses for each cytokine reporter cell line are recorded. […]

CCCCc1nc2c(N)nc3ccccc3c2n1Cc1cc(C)c(O)c(CN)c1 [Compound 29, 4-((4-Amino-2-butyl-1H-imidazo[4,5-c]quinolin-1-yl)methyl)-2-(aminomethyl)-6-methylphenol]
cytokine release in human whole blood: can induce cytokine release strongly
